Reference: patent US20090325959A1 (priority 2008, published 2009)
Like-named read-outs stand apart in the source and are kept apart here.

Assays:
[1] = test system: ova-sensitized, ova-challenged mice; assay: Mouse ovalbumin sensitization model, in vivo anti-inflammatory activity (BALF eosinophils and cytokines); conditions: for Airway eosinophil infiltration (eosinophils per ml of BALF): dosed orally to day 31, anti-inflammatory dosing paradigm, FIG. 4
Experimental: Male BALB/c mice were ordered from Charles River Laboratories (Raleigh, N.C.). The animals were approximately 19 to 21 grams at time of receipt. Upon arrival, the animals were randomized into groups of five males per cage and assigned to a dosing group. Animals were quarantined for 7 days under test conditions. They were observed daily for general health status and ability to adapt to the water bottles. Animals were sensitized on day 0 and 14 of study by an intraperitoneal injection with 20 μg of ovalbumin (ova) and 2.0 mg aluminum hydroxide (alum) which initiates the development of a specific T-helper (Th) cells type 2 resulting in asthmatic animals (denoted as Ova in the figures). One group of animals received an injection of saline to use as control animals (denoted as normal in the figures). […] Aerosol challenge consists of using an Aerogen Aeroneb nebulizer and controller with a particle size of 4-6 μm mass median aerodynamic diameter (MMAD) with a distribution of 400 μl per minute. This aerosol challenge is necessary to target the Th2-driven allergic inflammation in the lower airways.
The anti-inflammatory dosing paradigm (FIG. 3) was utilized to evaluate the anti-inflammatory effects of experimental compounds. […] On day 32 of the experiment, after measurement of airway hyperreactivity, BALF was collected and all animals were anesthetized, bled and euthanized.
Bronchoalveolar lavage fluid (BALF) was collected by infusing 3.0 ml of saline with 10% fetal calf serum into the lungs via the trachea and then withdrawing the fluid. The total amount of cells/ml of BALF fluid was determined via manual cell count on hemocytometer. The BALF was centrifuged, supernatant removed and analyzed for cytokine concentrations as described below, and cell pellet reconstituted in 500 μL of fluid. Cytospin slides were prepared from the cell pellet using 100 μL of fluid and spinning samples for 5 minutes at 5000 rpms in a cytospin centrifuge. Following Hema3 stain, relative percentages of individual leukocytes were determined on a 200 cell count for each sample. The final concentration of individual leukocyte cell types per ml of BALF was determined by multiplication of the relative percentage of individual leukocytes with the total amount of cells/ml of BALF fluid.
The concentrations of cytokines in the BALF samples were determined using commercially available Bio-plex kits (Bio-Rad) for the detection of mouse IL-5, IL-13, and Eotaxin. The analysis of cytokine levels was measured using the Bio-Plex 200 (Bio-Rad) system according to the manufacturer's instructions.

[2] = Compound plasma concentrations in unsensitized mice at 15 min post administration; type: in vivo; conditions: mouse
[3] = test system: ova-sensitized, ova-challenged mice; assay: Prevention of airway hyperreactivity (Penh, methacholine) in mouse ovalbumin sensitization model; type: in vivo; conditions: for log10AUC (Penh): 15 μmol/kg/oral, days 27 to 31; for airway hyperreactivity to methacholine dosed on Day 32: oral 15 μMol/kg once a day during days 27 to 31
Experimental: The anti-inflammatory dosing paradigm consists of dosing the animals once a day starting on day 27 and finishing on either day 30 or 31 (1 hr prior to the aerosolized ovalbumin challenges on days 28 to 30) but not on day 32 when hyperreactivity evaluation occurs. […] Exposure to the methacholine doses consisted of a 3 minute period during which a nebulizer was aerosolizing the methacholine and an additional 3 minute period following the cessation of nebulization. […] Enhanced pause (Penh), a unitless index of airway hyperreactivity, is derived from the expiratory side of the respiratory waveform measured via the plethysmograph and is used as an indirect measure of airway resistance and hyperreactivity. […] Following the methacholine dose response, BALF was collected and all animals were anesthetized, bled and euthanized. […] The Penh value at each of the dose levels of methacholine represents the 6-minute average response. Change from baseline (CFB) in Penh was calculated at each methacholine dose and the area under the curve (AUC) for these CFB values was calculated using the trapezoidal rule. This same approach was applied for each mouse across multiple experiments. […] Data from equal experimental conditions across experiments performed on different days were pooled for statistical analysis and data reporting. […] A random intercept for each experiment was assumed to account for possible similarities of the results obtained from a given experiment (i.e., as a “blocking effect”). […] For FIG. 9, linear AUC values from compound treated mice were reported as a percent of linear AUC values from vehicle-treated ovalbumin-sensitized/ovalbumin-challenged (asthmatic) mice.

[4] = test system: A-10 rat thoracic aorta cells; assay: PDGF-stimulated smooth muscle cell proliferation assay (BrdU incorporation); type: cell-based; conditions: for Percent of PDGF Induced Proliferation at 1 μM Avg / Percent of PDGF Induced Proliferation at 10 μM Avg: A-10 cells, 10 ng/mL PDGF, BrdU incorporation, percent of total challenge-stimulated proliferation; for Percent of PDGF Induced Proliferation at 1 μM Avg: 1 μM test compound; for Percent of PDGF Induced Proliferation at 10 μM Avg: 10 μM test compound;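 as to all read-outs here: cells kept in serum-free medium, BrdU allowed to incorporate for 24 h, then incorporated label detected fluorometrically with an anti-BrdU antibody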
Experimental: Effects on cell proliferation were measured using a bromodeoxyuridine (BrdU) incorporation assay. […] Serum free media containing 01% BSA was added to the cells. 24 hours later the media was removed and replaced with warmed serum free media. […] Proliferation was then monitored using the BrdU Cell Proliferation Assay, HTS (Calbiochem cat. #t HTS01). BrdU was allowed to incorporate into cells for 24 hours prior to the addition of fixative/denaturing solution and the fluorometric detection of incorporated BrdU using a BrdU antibody as per manufacturer's directions. Data are reported as a percent of the PDGF-stimulated BrdU incorporation.

ROCK2 = molecular target: T1, ROCK2 (Homo sapiens, UniProt O75116); assay: Rho kinase inhibition assay (IMAP fluorescence polarization), ROCK2; type: biochemical;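 also: kinase reaction started with 10 µM ATP and run 60 min at room temperature, then phosphorylated substrate captured on IMAP beads for 30 min and fluorescence polarization read in mP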
T1 construct: purchased Upstate/Chemicon 14-451
Experimental: (§1) Following the pre-incubation, 10 μM ATP was added to initiate the reaction. After 60 minutes at room temperature, Molecular Devices IMAP™ binding solution was added to bind phosphorylated substrate. After 30 minutes of incubation in the presence of the IMAP™ beads, the fluorescence polarization was read and the ratio was reported as mP. IC50 values for compounds and EC50 values for ATP were calculated using the Prism software from Graphpad.

p70S6K human enzyme = molecular target: T2, p70S6K human enzyme (Homo sapiens, UniProt P23443, T412E); assay: p70S6K inhibition assay (IMAP FP); type: biochemical;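 also: kinase reaction run at room temperature, phosphorylated substrate captured on IMAP beads and read as fluorescence polarization in mP, IC50 then converted to Ki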
T2 construct: purchased Upstate Chemicon 14-486

ROCK1 = molecular target: T3, ROCK1 (Homo sapiens, UniProt Q13464); assay: Rho kinase inhibition assay (IMAP fluorescence polarization), ROCK1; type: biochemical;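 also: kinase reaction run 60 min at room temperature, then phosphorylated substrate captured on IMAP beads for 30 min, with fluorescence polarization read in mP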
T3 construct: purchased Upstate/Chemicon 14-601
Experimental: as §1

human neutrophils = assay: Human neutrophil chemotaxis induced by fMLP (modified Boyden chamber); type: cell-based
Excerpt: This assay is an in vitro assay of neutrophil chemotaxis that can be used to evaluate the ability of Rho Kinase inhibitor compounds of Formula I or II to inhibit the migration of human neutrophils, an inflammatory cell that has been implicated in the pathophysiology of allergic conjunctivitis.
Peripheral blood from healthy human volunteers was collected and the neutrophils were isolated by Ficoll-paque density centrifugation followed by dextran sedimentation and hypotonic lysis of the red blood cells. Neutrophil chemotaxis was assessed using a modified Boyden Chamber (Neuroprobe, 96-well) with a 3 μm pore polycarbonate membrane. The ability of the tested compounds to block chemotaxis induced by a 1 μM fMLP challenge during a one hour incubation at 37° C. with 5% CO2 was assessed in a dose response manner.

Akt3 human enzyme = molecular target: T4, Akt3 human enzyme (Homo sapiens, UniProt Q9Y243); assay: Akt3 inhibition assay (IMAP FP); type: biochemical;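 also: kinase reaction run 60 min at room temperature after 30 µM ATP start, phosphorylated substrate captured on IMAP beads and read as fluorescence polarization (mP)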
T4 construct: purchased Upstate Chemicon 14-502

[5] = Rat oral pharmacokinetics (plasma); type: in vivo; conditions: 20-30 μmol/kg; for half-life: mean n = 3, read-out: t½ (converted)
Experimental: Plasma (EDTA K2 anticoagulant) was collected from male, cannulated, CD Sprague Dawley rats to determine the pharmacokinetics of formulations containing compound inhibitors of Rho kinase. Each animal was dosed orally with a 4 ml/kg solution or suspension of each test compound in 10 mM acetate buffered saline, pH 4.5 at a final concentration range of 20-30 μmol/kg. Blood was collected at 0.25, 0.5, 1, 2, 4, 6, 8, and 24 hours. Plasma samples were assayed for the concentration of the test compound using an on-line, solid phase extraction LC/MS/MS analysis system.
Samples were analyzed on a QSTAR Elite, hybrid quadrupole time-of-flight mass spectrometer (Applied Biosystems, Framingham, Mass.) coupled with a Symbiosis Pharma integrated, on-line SPE-HPLC system (Spark Holland Inc., Plainsboro, N.J.). Analyst QS 2.0 software was used for instrument control, data acquisition and processing. […] Mobile Phase A consisted of 0.1% ammonium hydroxide in water and Mobile Phase B consisted of 0.1% formic acid in acetonitrile. Pharmacokinetic analyses were performed using WinNonlin software version 5.2 (Pharsight Corporation, Mountain View, Calif.).
As determined from the plasma concentration versus time curves, the time to peak and peak exposure are represented by the values Tmax and Cmax, respectively. The AUC values (nM*hr) shown were calculated as the areas under the plasma concentration versus time curves from time zero through the time of the last observable value and represent the total exposure of the compound over the course of the study. Half-life values or the amount of time required for the plasma levels of the compound to decline to half the initial value are represented as t½.

[6] = Compound concentrations in lungs of ova-sensitized, ova-challenged mice post IP, PO and IT administration; type: in vivo; conditions: male, Balb/c, mouse, lung, n = 9 or 10, read-out: Lung concentration (plasma corrected); for concentration at 24 h: AI model, time point 24 h; for concentration at 3 h: BD model, time point 3 h
Experimental: Additionally, compound concentrations were determined in the plasma and lungs of male, ovalbumin-sensitized, Balb/c mice from a murine model of asthma. Test compounds were formulated in water or 1% polysorbate 80 and dosed at 15 μmol/kg for intraperitoneal (IP) or oral (PO) administration or formulated for intratracheal (IT) administration and dosed at 5 μmol/kg, which directly targets the lungs. Following completion of the in vivo study, mice were euthanized and blood and plasma collected approximately 2.5-3 hours post administration of test compound for bronchodialator (BD) studies and 24 hours post administration for anti-inflamatory (AI) studies. Lungs were homogenized in Matrix A lysing tubes using a FastPrep 24 tissue and cell homogenizer (MP Biomedicals, Solon, Ohio). Both plasma samples and lung extracts were assayed for compound concentrations using an on-line, solid phase extraction LC/MS/MS system. The actual lung tissue concentrations of each compound in mouse were extrapolated from the lung and plasma concentrations, data are shown in Table 11. The results of a set of experiments using unsensitized mice and collecting only plasma 15 minutes post administration of test compounds are shown in Table 12.

murine eosinophils = assay: Murine eosinophil chemotaxis induced by eotaxin; type: cell-based, mouse; conditions: 10 nM eotaxin challenge; FIG. 1
Experimental: Bronchoalveolar lavage was collected from ovalbumin sensitized and challenged mice in a volume of 2.5 mL lavage buffer. The lavage buffer was 0.9% saline with 10% fetal bovine serum. The pooled lavages were maintained on ice until use. The murine eosinophils were isolated using MACS cell separation (Miltenyi Biotech) by depletion of B cells and T cells by positive selection following incubation with antibody conjugated magnetic beads specific for CD45-R (B220) and CD90 (Thy 1.2), which bind B cells and T cells, respectively.
Eosinophil chemotaxis was assessed using a modified Boyden Chamber (Neuroprobe, 96-well) with a 5 μm pore membrane. The ability of the tested compounds to block chemotaxis induced by a 10 nM eotaxin challenge (mouse) or 1 nM eotaxin challenge (human) during one hour incubation at 37° C. with 5% CO2 was assessed. Chemotaxis was quantified via microscopy by counting the number of migrated cells in at least 3 view fields per treatment.

human eosinophils = assay: Human eosinophil chemotaxis induced by eotaxin; type: cell-based; conditions: 1 nM eotaxin challenge; FIG. 2
Excerpt: Peripheral blood from healthy human volunteers was collected and the PMNs separated via Ficoll-paque density centrifugation followed by hypotonic lysis of the red blood cells. Subsequently, the human eosinophils were isolated from the cell suspension via StemCell Technologies Human Eosinophil Enrichment kit (Cat. No 19256) according to the manufacturer's recommendations. Briefly, unwanted cells were specifically labeled with dextran-coated magnetic nanoparticles using bispecific Tetrameric Antibody Complexes (TAC) directed against cell surface antigens on human blood cells: […] The unwanted cells are then separated from the unlabelled eosinophils using the EasySep® magnetic isolation procedure.

LPS-challenged mice = assay: LPS-induced neutrophilia and cytokine production assay; type: in vivo, mouse; conditions: intratracheal administration; FIG. 11B
Experimental: Male BALB/c mice, approximately 19 to 21 grams, were ordered from Charles River Laboratories (Raleigh, N.C.). All animals were challenged with aerosolized LPS (10 μg/ml) for 25 minutes on study day 0. LPS aerosol was generated using an Aerogen Aeroneb nebulizer and controller providing a flow of 400 μl/min and a particle size of 2-4 μm MMAD. Rolipram was administered i.p at 20 mg/kg. […] Four hours following LPS challenge, BALF was collected using a total of 3 ml of 0.9% sodium chloride containing 10% fetal calf serum. Total cell counts were determined using the Coulter Counter. For differential evaluations, BALF was centrifuged and cytospin slides prepared and stained with Hema3 stain. Manual leukocyte counts were then completed on 200 cells. The final concentration of individual leukocyte cell types per ml of BALF was determined by multiplication of the relative percentage of individual leukocytes with the total amount of cells/ml of BALF fluid. The concentration of IL-1β in the BALF samples was determined using commercially available Bio-plex kits (Bio-Rad). The analysis of cytokine levels was measured using the Bio-Plex 200 (Bio-Rad) system according to the manufacturer's instructions.

human monocytes = assay: Human monocyte cytokine secretion assay (LPS-stimulated); type: cell-based; conditions: average percent of stimulated IL-1β secretion from human monocytes at 10 μM of test compound
Experimental: Peripheral blood from healthy human volunteers was collected and the monocytes isolated via Ficoll-paque density centrifugation. […] The cells were allowed to pre-incubate with test compound at the indicated concentration for 30 minutes (37° C., 5% CO2, humidified air); after which the supernatant was removed and media containing compound and 1 ng/mL LPS was added. Cells were allowed to incubate with compounds and LPS for 4 hours at 37° C. after which the supernatant was removed and stored at −80° C. Cytokine concentrations in the supernatant were determined using commercially available Bio-Rad Bio-plex™ kits according the manufacturer's instructions.

[7] = 15 μmol/kg, mean compound plasma concentration in mice at 15 minutes post oral administration, read-out: Mouse Oral PK
[8] = 10 μM ATP, read-out: ROCK2 Ki, Avg
[9] = 30 μM ATP, Ki=IC50/(1+([ATP Challenge]/EC50 ATP)), read-out: p70S6K Ki, Avg
[10] = average Ki, read-out: p70S6K Ki
[11] = Neutrophil, 1 h, 1 μM fMLP challenge, one hour, read-out: Chemotaxis Avg. IC50
[12] = average IC50 for inhibition of fMLP-induced neutrophil chemotaxis, read-out: Chemotaxis IC50
[13] = 30 μM ATP, Ki=IC50/(1+([ATP Challenge]/EC50 ATP)), read-out: Akt3 Ki, Avg
[14] = male, CD Sprague Dawley, mean n = 3
[15] = male, CD Sprague Dawley, mean n = 3, read-out: Cmax
[16] = male, CD Sprague Dawley, mean n = 3, read-out: Tmax

T1 sequence (O75116 11-552 limits assumed): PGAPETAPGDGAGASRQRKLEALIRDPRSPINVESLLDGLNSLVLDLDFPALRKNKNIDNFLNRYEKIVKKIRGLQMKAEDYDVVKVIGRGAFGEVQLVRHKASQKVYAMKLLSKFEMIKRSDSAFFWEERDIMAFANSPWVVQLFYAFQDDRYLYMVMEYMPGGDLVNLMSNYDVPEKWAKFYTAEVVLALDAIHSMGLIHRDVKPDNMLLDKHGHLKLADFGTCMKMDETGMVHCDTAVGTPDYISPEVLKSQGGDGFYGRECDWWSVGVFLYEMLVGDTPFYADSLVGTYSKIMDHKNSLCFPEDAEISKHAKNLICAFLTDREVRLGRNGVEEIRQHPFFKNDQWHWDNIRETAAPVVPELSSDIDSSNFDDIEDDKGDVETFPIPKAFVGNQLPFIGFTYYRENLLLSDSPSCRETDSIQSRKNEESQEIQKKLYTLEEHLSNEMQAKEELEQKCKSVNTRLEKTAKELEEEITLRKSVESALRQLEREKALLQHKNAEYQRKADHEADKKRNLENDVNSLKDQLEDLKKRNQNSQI
T2 sequence (P23443 1-421 T412E limits assumed): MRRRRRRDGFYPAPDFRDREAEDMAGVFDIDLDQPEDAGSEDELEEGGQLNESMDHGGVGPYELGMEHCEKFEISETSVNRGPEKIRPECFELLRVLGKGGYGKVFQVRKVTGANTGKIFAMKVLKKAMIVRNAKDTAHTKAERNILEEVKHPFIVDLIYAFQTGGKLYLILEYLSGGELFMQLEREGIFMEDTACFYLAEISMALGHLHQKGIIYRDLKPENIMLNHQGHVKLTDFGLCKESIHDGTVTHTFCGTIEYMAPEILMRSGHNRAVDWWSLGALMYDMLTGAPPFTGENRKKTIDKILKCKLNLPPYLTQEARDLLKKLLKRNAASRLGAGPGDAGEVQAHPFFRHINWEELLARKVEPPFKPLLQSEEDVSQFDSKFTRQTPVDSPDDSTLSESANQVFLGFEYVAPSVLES
T3 sequence (Q13464 17-535 limits assumed): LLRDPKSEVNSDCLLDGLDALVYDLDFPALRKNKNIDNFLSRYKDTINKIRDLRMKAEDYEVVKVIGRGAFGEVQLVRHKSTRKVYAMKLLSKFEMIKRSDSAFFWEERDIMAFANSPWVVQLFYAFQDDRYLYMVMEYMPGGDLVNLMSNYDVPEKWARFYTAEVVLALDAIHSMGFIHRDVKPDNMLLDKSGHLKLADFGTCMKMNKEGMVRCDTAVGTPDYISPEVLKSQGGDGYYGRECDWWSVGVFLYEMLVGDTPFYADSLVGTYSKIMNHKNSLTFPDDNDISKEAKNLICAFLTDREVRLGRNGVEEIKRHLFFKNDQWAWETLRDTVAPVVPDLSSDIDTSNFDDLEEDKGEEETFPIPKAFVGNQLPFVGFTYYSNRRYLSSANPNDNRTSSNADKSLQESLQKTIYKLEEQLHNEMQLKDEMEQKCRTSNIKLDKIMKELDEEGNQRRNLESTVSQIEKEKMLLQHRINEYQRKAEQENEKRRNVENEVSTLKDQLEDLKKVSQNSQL
T4 sequence (Q9Y243 whole entry): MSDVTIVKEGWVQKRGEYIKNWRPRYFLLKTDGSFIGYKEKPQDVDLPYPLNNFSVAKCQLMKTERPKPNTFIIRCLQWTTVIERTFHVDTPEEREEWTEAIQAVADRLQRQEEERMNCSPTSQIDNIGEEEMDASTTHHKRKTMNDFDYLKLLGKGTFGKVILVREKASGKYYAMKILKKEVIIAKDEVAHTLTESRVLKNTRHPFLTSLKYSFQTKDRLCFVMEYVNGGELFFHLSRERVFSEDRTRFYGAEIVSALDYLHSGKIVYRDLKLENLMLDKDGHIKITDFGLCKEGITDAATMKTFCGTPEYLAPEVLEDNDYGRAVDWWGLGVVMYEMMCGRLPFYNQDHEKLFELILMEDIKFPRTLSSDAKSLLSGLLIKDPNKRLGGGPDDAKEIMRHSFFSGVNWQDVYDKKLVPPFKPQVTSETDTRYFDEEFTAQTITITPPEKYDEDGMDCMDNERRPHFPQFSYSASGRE

SMILES	Airway eosinophil infiltration (eosinophils per ml of BALF) [1]	concentration at 15 min [2, 7]	log10AUC (Penh) [3]	Percent of PDGF Induced Proliferation at 1 μM Avg [4]	Percent of PDGF Induced Proliferation at 10 μM Avg [4]	Ki (ROCK2; [8])	Ki (p70S6K human enzyme; [9])	Ki (p70S6K human enzyme; [10])	Ki (ROCK1; Avg, 10 μM ATP)	Ki (ROCK1; average Ki)	IC50 (human neutrophils; [11])	IC50 (human neutrophils; [12])	Ki (Akt3 human enzyme; [13])	Ki (Akt3 human enzyme; average Ki, read-out: Akt3 Ki)	Vz_F ([5]; mean n = 3)	AUC(0-t) [5, 14]	Cmax [5, 15]	Tmax [5, 16]	half-life ([5]; male, CD Sprague Dawley)	concentration at 3 h ([6]; PO 15 μmol/kg)	also measured
c1cc2cc(CN3CCC[C@@H](Nc4ccc5[nH]ncc5c4)C3)ccc2o1 [Compound 1.131, (R)-N-(1-(benzofuran-5-ylmethyl)piperidin-3-yl)-1H-indazol-5-amine]	reduced	445 nM	2.0674	61.7%	36.6%	3.8 nM	503 nM	503 nM	19.7 nM	19.7 nM	1590 nM	1600 nM	283 nM	283 nM	6.8 L/kg	10.8 µM·h	5610 nM	49.8 min	93 min	7350 nM	airway hyperreactivity to methacholine dosed on Day 32 [3]: prevention of airway hyperreactivity; Ki (ROCK2; average Ki, read-out: ROCK2 Ki): 3.8 nM; concentration at 24 h ([6]; PO 15 μmol/kg): 33 nM
OCCOc1cccc(CN2CCC[C@@H](Nc3ccc4[nH]ncc4c3)C2)c1 [Compound 1.092, (R)-2-(3-((3-(1H-indazol-5-ylamino)piperidin-1-yl)methyl)phenoxy)ethanol]						28.4 nM			191 nM		2750 nM				19.0 L/kg	1.85 µM·h	2100 nM	15 min	104 min	152 nM	
CS(=O)(=O)Nc1cccc(CN2CC[C@@H](Nc3cccc4cnccc34)C2)c1 [Compound 2.038, (R)-N-(3-((3-(isoquinolin-5-ylamino)pyrrolidin-1-yl)methyl)phenyl)methanesulfonamide]	reduced	729 nM	1.8981	58.6%	62.7%	6.3 nM	1400 nM	1400 nM	28.9 nM	28.9 nM	734 nM	700 nM	2550 nM	2550 nM	22.5 L/kg	1.28 µM·h	1040 nM	30 min	42.6 min	440 nM	concentration of IL-5 in BALF ([1]; 15 μmol/kg/oral on days 27 to 31, FIG. 6): reduced levels; concentration of Eotaxin in BALF ([1]; 15 μmol/kg/oral on days 27 to 31, FIG. 7): reduced levels; concentration of IL-13 in BALF ([1]; 15 μmol/kg/oral on days 27 to 31, FIG. 8): reduced levels; airway hyperreactivity to methacholine dosed on Day 32 [3]: prevention of airway hyperreactivity; Ki (ROCK2; average Ki, read-out: ROCK2 Ki): 6.3 nM; eotaxin-induced chemotactic response of murine eosinophils (murine eosinophils): inhibited; eotaxin-induced chemotactic response of human eosinophils (human eosinophils): inhibited; concentration at 24 h ([6]; PO 15 μmol/kg): 11 nM
CS(=O)(=O)Nc1cccc(CN2CCCC(Nc3ccc4[nH]ncc4c3)C2)c1 (stereo in doubt) [Compound 1.091, (S)-N-(3-((3-(1H-indazol-5-ylamino)piperidin-1-yl)methyl)phenyl)methanesulfonamide]				85.7%	69.3%	3.3 nM	1420 nM	1420 nM	71.4 nM	71.4 nM	2330 nM	2300 nM	5390 nM	5390 nM	BLQ						eosinophils (eosinophil influx, BALF) ([1]; dosed i.t. to day 30, anti-inflammatory dosing paradigm, FIG. 5): reduction of eosinophils; concentration at 15 min ([2]; plasma, unsensitized mice, 15 min post administration, mean n = 3, read-out: Plasma Mean Concentration): 334 nM; airway hyperreactivity ([3]; intratracheal once a day during days 27 to 30, FIG. 9): prevention of airway hyperreactivity; Proliferation at 1 μM, % ([4]; average percent of PDGF stimulated proliferation at 1 μM of test compound): 85.7%; IL-1β levels in BALF from LPS-challenged mice (LPS-challenged mice): reduction; IL-1β % (human monocytes): 165.5%; AUC (0-last) ([5]; mean n = 3): BLQ; Cmax ([5]; mean n = 3): BLQ; Tmax ([5]; mean n = 3): BLQ; t½ ([5]; mean n = 3): BLQ; concentration at 3 h ([6]; intraperitoneal, IP 15 μmol/kg): 117 nM
